According to US11866450B2, “Modulators of Cystic Fibrosis Transmembrane Conductance regulator, pharmaceutical compositions, methods of treatment, and process for making the modulators” (priority 2018, dated 2024):
pEC50: −log10 of the molar value. Values joined by “and” are separate entries in the source; they are usually repeats but may differ in a detail not shown here. Equal entries are not always repeated. Where two headings read alike, the source gives them in different places.

Assays:
[1] = snar bond, DMSO
[2] = target: CFTR-mediated chloride transport (Homo sapiens, UniProt P13569); assay type: cell-based; conditions: enteroid cells incubated with test compound 18-24 hours, acute 10 μM forskolin and 300 nM Compound III; for Max. Activity: % of chloride transport with 3 μM Compound A, 3 μM Compound II and 300 nM acute Compound III triple combination control
How it was run: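 Human intestinal enteroid cells incubated with compound 18–24 h at 37° C., then membrane potential dye (FLIPR) read 15 min after chloride-free stimulation with 10 μM forskolin, 100 μM IBMX and 300 nM Compound III. AUC expressed as % of triple-combination control (3 μM Compound A, 3 μM Compound II, 300 nM Compound III).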

Chain of CFTR-mediated chloride transport (P13569 whole entry, looked up): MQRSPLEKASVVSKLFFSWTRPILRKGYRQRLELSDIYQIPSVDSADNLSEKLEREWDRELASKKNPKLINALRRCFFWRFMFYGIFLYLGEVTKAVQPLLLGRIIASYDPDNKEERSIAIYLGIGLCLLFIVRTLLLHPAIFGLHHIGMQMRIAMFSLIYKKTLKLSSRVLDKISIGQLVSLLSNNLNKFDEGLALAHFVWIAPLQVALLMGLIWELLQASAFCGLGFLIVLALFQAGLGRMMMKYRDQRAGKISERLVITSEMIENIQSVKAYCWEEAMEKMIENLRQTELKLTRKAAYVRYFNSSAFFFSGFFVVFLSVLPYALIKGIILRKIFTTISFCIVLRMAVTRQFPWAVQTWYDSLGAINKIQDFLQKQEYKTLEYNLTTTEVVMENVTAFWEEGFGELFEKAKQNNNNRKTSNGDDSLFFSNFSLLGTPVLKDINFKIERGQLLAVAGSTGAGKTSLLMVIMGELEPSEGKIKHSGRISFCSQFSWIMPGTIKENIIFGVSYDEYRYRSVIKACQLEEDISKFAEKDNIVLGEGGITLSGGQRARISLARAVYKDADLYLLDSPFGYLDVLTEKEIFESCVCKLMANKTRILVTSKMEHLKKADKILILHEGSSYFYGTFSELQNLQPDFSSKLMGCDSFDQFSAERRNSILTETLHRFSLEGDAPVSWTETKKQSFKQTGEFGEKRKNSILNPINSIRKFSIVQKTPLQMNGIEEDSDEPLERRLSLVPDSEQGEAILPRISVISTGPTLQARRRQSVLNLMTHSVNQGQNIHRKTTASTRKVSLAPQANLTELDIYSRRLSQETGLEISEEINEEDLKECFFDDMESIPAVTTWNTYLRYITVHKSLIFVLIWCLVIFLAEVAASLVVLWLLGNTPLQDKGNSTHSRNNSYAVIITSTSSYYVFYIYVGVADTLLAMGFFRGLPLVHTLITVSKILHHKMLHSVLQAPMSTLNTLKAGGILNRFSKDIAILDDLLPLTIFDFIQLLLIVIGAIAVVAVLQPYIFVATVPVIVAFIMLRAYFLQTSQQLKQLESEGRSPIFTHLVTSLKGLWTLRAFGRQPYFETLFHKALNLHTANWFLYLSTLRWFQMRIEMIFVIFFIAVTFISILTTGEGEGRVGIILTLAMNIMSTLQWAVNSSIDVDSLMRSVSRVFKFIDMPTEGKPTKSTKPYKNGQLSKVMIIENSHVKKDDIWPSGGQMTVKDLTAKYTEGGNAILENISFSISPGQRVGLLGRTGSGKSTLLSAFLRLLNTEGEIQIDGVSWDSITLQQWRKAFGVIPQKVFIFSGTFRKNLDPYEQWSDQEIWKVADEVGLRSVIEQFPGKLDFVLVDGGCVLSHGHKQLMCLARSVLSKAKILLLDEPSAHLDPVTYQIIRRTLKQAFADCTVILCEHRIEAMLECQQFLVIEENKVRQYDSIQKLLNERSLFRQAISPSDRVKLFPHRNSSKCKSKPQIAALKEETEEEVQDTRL

| SMILES | pEC50 [2] | Max. Activity [2] | also measured |
| --- | --- | --- | --- |
| CC1(C)CCC2CCCNc3cccc(n3)S(=O)(=O)NC(=O)c3ccc(-n4ccc(OCCC(C5CC5)C5CC5)n4)nc3N21 (stereo not drawn) [Compound 131, 8-[3-(3,3-Dicyclopropylpropoxy)-1H-pyrazol-1-yl]-12,12-dimethyl-2λ^6-thia-3,9,11,19,24-pentaazatetracyclo[18.3.1.05,10.011,15]tetracosa-1(23),5(10),6,8,20(24),21-hexaene-2,2,4-trione] | > 6.00 | ++ (++ is 30-60%) | ring closure, yield after HPLC ([1]; from CC(C)(C)OC(=O)N1C(CCCNc2cccc(S(=O)(=O)NC(=O)c3ccc(-n4ccc(OCCC(C5CC5)C5CC5)n4)nc3Cl)n2)CCC1(C)C, 14-membered ring, K2CO3/CsF/3A MS, 94.1 mM, 150.0 °C, 2 steps): 39% |
| CC1(C)CC2CCCn3ccc(n3)S(=O)(=O)NC(=O)c3ccc(-n4ccc(OCCC(C5CC5)C5CC5)n4)nc3N1C2 (stereo not drawn) [Compound 141, 4-[3-(3,3-Dicyclopropylpropoxy)-1H-pyrazol-1-yl]-20,20-dimethyl-10λ^6-thia-1,3,9,14,22-pentaazatetracyclo[16.2.1.111,14.02,7]docosa-2,4,6,11(22),12-pentaene-8,10,10-trione] | > 6.00 | +++ (+++ is >60%) | ring closure, yield after HPLC ([1]; from CC(C)(C)OC(=O)N1CC(CCCn2ccc(S(=O)(=O)NC(=O)c3ccc(-n4ccc(OCCC(C5CC5)C5CC5)n4)nc3Cl)n2)CC1(C)C, 14-membered ring, K2CO3/CsF/3A MS, 66.2 mM, 150.0 °C, 2 steps): 23% and 22% |
| CC1(C)CCC2CCCOc3cccc(n3)S(=O)(=O)NC(=O)c3ccc(-n4ccc(OCCC5(C(F)(F)F)CC5)n4)nc3N21 (stereo not drawn) [Compound 147, 12,12-dimethyl-8-(3-{2-[1-(trifluoromethyl)cyclopropyl]ethoxy}-1H-pyrazol-1-yl)-19-oxa-2λ^6-thia-3,9,11,24-tetraazatetracyclo[18.3.1.05,10.011,15]tetracosa-1(24),5(10),6,8,20,22-hexaene-2,2,4-trione] | > 6.00 | ++ (++ is 30-60%) | ring closure, yield after HPLC ([1]; from CC(C)(C)OC(=O)N1C(CCCOc2cccc(S(=O)(=O)NC(=O)c3ccc(-n4ccc(OCCC5(C(F)(F)F)CC5)n4)nc3Cl)n2)CCC1(C)C, 14-membered ring, K2CO3/CsF/3A MS, 66.1 mM, 140.0 °C, 2 steps): 5% |
| CC1(C)CC2CN1c1nc(-n3ccc(OCCC4(C(F)(F)F)CC4)n3)ccc1C(=O)NS(=O)(=O)c1ccnn1CCO2 (stereo not drawn) [Compound 152, 21,21-dimethyl-4-(3-{2-[1-(trifluoromethyl)cyclopropyl]ethoxy}-1H-pyrazol-1-yl)-18-oxa-10λ^6-thia-1,3,9,14,15-pentaazatetracyclo[17.2.1.02,7.011,15]docosa-2(7),3,5,11,13-pentaene-8,10,10-trione] | < 5.52 | + (+ is <30%) | ring closure, yield after HPLC ([1]; from CC(C)(C)OC(=O)N1CC(OCCn2ccc(S(=O)(=O)NC(=O)c3ccc(-n4ccc(OCCC5(C(F)(F)F)CC5)n4)nc3Cl)n2)CC1(C)C, 13-membered ring, K2CO3/CsF/3A MS, 62.0 mM, 140.0 °C, 2 steps): 34% |
| CC1(C)CC2CN1c1nc(-n3ccc(OCCCC4(C(F)(F)F)CC4)n3)ccc1C(=O)NS(=O)(=O)c1cccc(n1)NCCO2 (stereo not drawn) [Compound 157] | > 6.00 | +++ (+++ is >60%) | ring closure, yield after HPLC ([1]; from CC1(C)CC(OCCNc2cccc(S(=O)(=O)NC(=O)c3ccc(-n4ccc(OCCCC5(C(F)(F)F)CC5)n4)nc3Cl)n2)CN1, 15-membered ring, K2CO3/CsF/4A MS, 105.0 mM, 150.0 °C): 34% |
| CN1CCCC2CN(c3nc(-n4ccc(OCCC(C5CC5)C5CC5)n4)ccc3C(=O)NS(=O)(=O)c3cccc1n3)C(C)(C)C2 (stereo not drawn) [Compound 189, 8-[3-(3,3-Dicyclopropylpropoxy)-1H-pyrazol-1-yl]-12,12,18-trimethyl-2λ^6-thia-3,9,11,18,23-pentaazatetracyclo[17.3.1.111,14.05,10]tetracosa-1(22),5,7,9,19(23),20-hexaene-2,2,4-trione] | > 6.00 | +++ (+++ is >60%) | ring closure, yield after HPLC ([1]; from CN(CCCC1CNC(C)(C)C1)c1cccc(S(=O)(=O)NC(=O)c2ccc(-n3ccc(OCCC(C4CC4)C4CC4)n3)nc2Cl)n1, 15-membered ring, K2CO3/CsF/4A MS, 24.8 mM, 130.0 °C, 2 steps): 60% |
| CC1(C)C[C@H]2CCCNc3cccc(n3)S(=O)(=O)NC(=O)c3ccc(-n4ccc(OCCCC5(C(F)(F)F)CC5)n4)nc3N1C2 [Compound 190, (14R)-12,12-dimethyl-8-(3-{3-[1-(trifluoromethyl)cyclopropyl]propoxy}-1H-pyrazol-1-yl)-2λ^6-thia-3,9,11,18,23-pentaazatetracyclo[17.3.1.111,14.05,10]tetracosa-1(23),5,7,9,19,21-hexaene-2,2,4-trione] | > 6.00 | ++ (++ is 30-60%) | ring closure, yield after HPLC ([1]; from CC1(C)CC(CCCNc2cccc(S(=O)(=O)NC(=O)c3ccc(-n4ccc(OCCCC5(C(F)(F)F)CC5)n4)nc3Cl)n2)CN1, 15-membered ring, K2CO3/CsF/4A MS, 102.3 mM, 150.0 °C, 2 steps): 49% |
| Cc1cn2nc1S(=O)(=O)NC(=O)c1ccc(-n3ccc(OCCC4(C(F)(F)F)CC4)n3)nc1N1CC(CCC2)CC1(C)C (stereo not drawn) [Compound 199, 12,20,20-trimethyl-4-(3-{2-[1-(trifluoromethyl)cyclopropyl]ethoxy}-1H-pyrazol-1-yl)-10λ^6-thia-1,3,9,14,22-pentaazatetracyclo[16.2.1.111,14.02,7]docosa-2(7),3,5,11(22),12-pentaene-8,10,10-trione] | > 6.00 | ++ (++ is 30-60%) | ring closure, yield after HPLC ([1]; from Cc1cn(CCCC2CNC(C)(C)C2)nc1S(=O)(=O)NC(=O)c1ccc(-n2ccc(OCCC3(C(F)(F)F)CC3)n2)nc1Cl, 14-membered ring, K2CO3/CsF/3A MS, 27.4 mM, 150.0 °C): 12% |
| CC1(C)C[C@@H]2CCCNc3cccc(n3)S(=O)(=O)NC(=O)c3ccc(-n4ccc(OCC(C)(C)C(F)(F)F)n4)nc3N1C2 [Compound 208, (14S)-12,12-dimethyl-8-[3-(3,3,3-trifluoro-2,2-dimethylpropoxy)-1H-pyrazol-1-yl]-2λ^6-thia-3,9,11,18,23-pentaazatetracyclo[17.3.1.111,14.05,10]tetracosa-1(22),5,7,9,19(23),20-hexaene-2,2,4-trione] | > 6.00 | +++ (+++ is >60%) | ring closure, yield after HPLC ([1]; from CC1(C)C[C@H](CCCNc2cccc(S(=O)(=O)NC(=O)c3ccc(-n4ccc(OCC(C)(C)C(F)(F)F)n4)nc3Cl)n2)CN1, 15-membered ring, K2CO3/CsF/3A MS, 57.7 mM, 150.0 °C): 51% |
| CC1(C)C[C@@H]2CCCNc3cccc(n3)S(=O)(=O)NC(=O)c3ccc(-n4ccc(OCCC(C)(C)C(F)(F)F)n4)nc3N1C2 [Compound 212, (14S)-12,12-Dimethyl-8-[3-(4,4,4-trifluoro-3,3-dimethylbutoxy)-1H-pyrazol-1-yl]-2λ^6-thia-3,9,11,18,23-pentaazatetracyclo[17.3.1.111,14.05,10]tetracosa-1(22),5,7,9,19(23),20-hexaene-2,2,4-trione] | > 6.00 | +++ (+++ is >60%) | ring closure, yield after HPLC ([1]; from CC(C)(C)OC(=O)N1C[C@@H](CCCNc2cccc(S(=O)(=O)NC(=O)c3ccc(-n4ccc(OCCC(C)(C)C(F)(F)F)n4)nc3Cl)n2)CC1(C)C, 15-membered ring, K2CO3/CsF/3A MS, 21.2 mM, 130.0 °C, 2 steps): 51% |
| CC(C)C(COc1ccn(-c2ccc3c(n2)N2CC(CCCNc4cccc(n4)S(=O)(=O)NC3=O)CC2(C)C)n1)C(C)C (stereo not drawn) [Compound 220, 12,12-Dimethyl-8-{3-[3-methyl-2-(propan-2-yl)butoxy]-1H-pyrazol-1-yl}-2λ^6-thia-3,9,11,18,23-pentaazatetracyclo[17.3.1.111,14.05,10]tetracosa-1(23),5(10),6,8,19,21-hexaene-2,2,4-trione] | > 6.00 | +++ (+++ is >60%) | ring closure, yield after HPLC ([1]; from CC(C)C(COc1ccn(-c2ccc(C(=O)NS(=O)(=O)c3cccc(NCCCC4CCC(C)(C)N4C(=O)OC(C)(C)C)n3)c(Cl)n2)n1)C(C)C, 15-membered ring, K2CO3/CsF/3A MS, 83.8 mM, 140.0 °C, 2 steps): 39% |
| CC1(C)C[C@@H]2CCCn3ccc(n3)S(=O)(=O)NC(=O)c3ccc(-n4ccc(OCCC(C)(C)C(F)(F)F)n4)nc3N1C2 [Compound 221, (18S)-20,20-Dimethyl-4-[3-(4,4,4-trifluoro-3,3-dimethylbutoxy)-1H-pyrazol-1-yl]-10λ^6-thia-1,3,9,14,22-pentaazatetracyclo[16.2.1.111,14.02,7]docosa-2,4,6,11(22),12-pentaene-8,10,10-trione] | > 6.00 | +++ (+++ is >60%) | ring closure, yield after HPLC ([1]; from CC(C)(C)OC(=O)N1C[C@@H](CCCn2ccc(S(=O)(=O)NC(=O)c3ccc(-n4ccc(OCCC(C)(C)C(F)(F)F)n4)nc3Cl)n2)CC1(C)C, 14-membered ring, K2CO3/CsF/3A MS, 22.0 mM, 130.0 °C, 2 steps): 21% |
| CC(C)COc1cc(F)cc(-c2ccc3c(n2)N2C[C@@H](CCCNc4cccc(n4)S(=O)(=O)NC3=O)CC2(C)C)c1 [Compound 224, (14S)-8-[3-Fluoro-5-(2-methylpropoxy)phenyl]-12,12-dimethyl-2λ^6-thia-3,9,11,18,23-pentaazatetracyclo[17.3.1.111,14.05,10]tetracosa-1(22),5,7,9,19(23),20-hexaene-2,2,4-trione] | > 6.00 | +++ (+++ is >60%) | ring closure, yield after HPLC ([1]; from CC(C)COc1cc(F)cc(-c2ccc(C(=O)NS(=O)(=O)c3cccc(NCCC[C@@H]4CN(C(=O)OC(C)(C)C)C(C)(C)C4)n3)c(Cl)n2)c1, 15-membered ring, K2CO3/CsF/3A MS, 30.6 mM, 150.0 °C, 2 steps): 14% |
